Source: patent US20260242340A1, “COMPOUNDS AND METHODS FOR TREATING PROTEIN AGGREGATION DISEASES” (ACELOT, INC., priority 2023, published 2026)

Experiments:
[1] = target: TDP-43 peptide (amino acids 307-319) (Homo sapiens, UniProt Q13148); experiment: TDP-43 thioflavin T assay; assay type: biochemical; conditions: ThT RFU at 15 hours; 100% = TDP-43 + DMSO
Protocol: The effect of compounds on fibril formation by TDP-43 peptide (amino acids 307-319) was screened using a thioflavin T (ThT) fluorescence assay in a 96-well plate format. The monomeric form of TDP-43 307-319 was stored in HFIP at −20° C. in 32 μL vials and then thawed on ice. After thawing a stock aliquot on ice, 16 μL of HFIP and 432 μL 100 mM ammonium acetate was added. This mix was pipetted three times. Three such prepared aliquots were combined to create a master mix. 400 μM of ThT stock was prepared by dissolving 31.8 mg ThT in 10 mL Milli-Q water to make […] stock. The 10 mM ThT stock was then diluted to 400 μM with Milli-Q water and stored at −20° C. until use. 20 μL aliquots of compounds were used as initial starting material. 98 μL of master mix was then added to each well of 96-well plate, and then 2 μL of compounds was added to each well testing a compound. The plate was spun at 4700×rpm to remove bubbles at 4° C., and then the plate measurements were collected. ThT fluorescence was measured through the bottom of the plate using 440- and 480-nm excitation and emission filters for 15 hours at 0.5-hour intervals. Each well was scanned at 5 points with a 1.25 mm distance between points. The relative fluorescence unit (RFU) at 15 hours was used to rank the percent of aggregation for all tested compounds.

[2] = target: T1, TDP-43 cytosolic aggregates (TDP-43-tGFP-U2OS cell line) (Homo sapiens, UniProt Q13148); experiment: TDP-43 cytoplasmic aggregation assay; assay type: cell-based; conditions: 100 μM compound; TDP-43-tGFP-U2OS cells; lower = more potent
T1 construct: expressed in transfected cells; host or cells: U2OS (recombinant, IPTG-inducible TDP-43 expression)
T1 sequence (Q13148 whole entry): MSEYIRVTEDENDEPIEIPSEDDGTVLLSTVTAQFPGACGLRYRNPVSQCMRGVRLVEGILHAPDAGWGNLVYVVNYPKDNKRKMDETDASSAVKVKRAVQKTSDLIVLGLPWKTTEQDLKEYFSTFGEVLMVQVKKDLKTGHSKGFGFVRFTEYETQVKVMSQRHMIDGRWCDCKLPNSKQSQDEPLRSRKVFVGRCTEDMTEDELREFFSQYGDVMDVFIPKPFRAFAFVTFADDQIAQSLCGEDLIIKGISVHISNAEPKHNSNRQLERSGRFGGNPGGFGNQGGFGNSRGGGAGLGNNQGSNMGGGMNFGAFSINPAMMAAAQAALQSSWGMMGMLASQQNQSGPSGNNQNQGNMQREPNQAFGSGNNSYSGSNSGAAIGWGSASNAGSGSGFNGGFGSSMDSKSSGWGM
Protocol: Recombinant TDP-43-tGFP-U2OS cell line was thawed (2×10^6 cells per T75) and was maintained in DMEM-F12 supplemented with 10% FBS at 37° C. in a humidified 5% CO2 atmosphere. Cells were plated in 96-well plates with a density of 10,000 cells (+/−2000 cells) per well. Cells were incubated with the test compounds and isopropyl β-D-1-thiogalactopyranoside (IPTG) 1 mM to induce TDP43 expression for 24 hours. The assays were carried out in triplicate. Cells were treated with 125-250 μM of sodium arsenite for 120 min and TDP-43 punctae formation was quantified in both cell cytoplasm and cell nucleus, in living cells. The nuclei were stained using Hoechst (0.5 μg/ml) and the fluorescence was measured using a Cell Insight High-Content Bioimager from Thermo Fisher. To detect the Hoechst, the filters used were 380/10 and 460/10 nm for excitation and emission, respectively, and to detect the TDP-43 punctae, the filters were 488/20 and 520/20 nm, respectively. The images were obtained with an objective of 20×. Cell quantification was performed delimitating the region of interest of the nuclei and after quantification the average of each triplicate was performed. For granule quantification the spot detector application from Cell Software delimitated 2 regions of interest, the nuclei and cytosol. This software quantified the average number of granules per nuclei and the average number of granules per cytosol in each well.

alpha-synuclein = target: T2, alpha-synuclein (Homo sapiens, UniProt P37840); experiment: Alpha-synuclein thioflavin T assay; assay type: biochemical; conditions: 250 μM compound on pre-formed aggregates of 50 μM alpha-synuclein, 24 hours; 100% = alpha synuclein + DMSO
T2 construct: purchased Proteos RP-003
Protocol: Recombinant alpha-synuclein monomeric protein was procured from Proteos (catalog no. RP-003, 10 mg/ml or 700 μM concentration). Prior to aggregation, the protein was centrifuged at 10,000 rpm for 5 minutes to remove any pre-existing aggregates. The stock solution was then diluted to 50 μM concentration in filtered 1×PBS and allowed to aggregate with continuous shaking at 1000 rpm on a thermomixer for 96 hours at 37° C. After 96 hours, the ThT fluorescence was checked for the sample to confirm aggregate formation using ThT, a well-known amyloid marker dye. The ThT active aggregates were then used for high-throughput small molecule inhibitor screening. For screening small molecule disaggregators, 10 mM DMSO stock solutions of small molecules were diluted to 250 μM in the reaction mix containing 20 μM ThT and aggregates formed by 50 μM alpha-synuclein. As a positive/vehicle control, 100% DMSO stock was diluted to 2.5% to match the DMSO in the small molecule conditions. ThT fluorescence assay was performed for 24 hours with 3 replicates per sample in a 384 well plate (Corning low volume black/clear flat bottom) on a microplate reader (Molecular Devices SpectraMax iD5 or BioTek Agilent Synergy Neo2) using excitation wavelength of 440 nm and emission wavelength of 490 nm. The temperature was maintained at 37° C. and the plate was continuously shaken throughout the measurement. All data were plotted and analyzed in GraphPad Prism.

Aβ 1-42 = target: T3, Aβ 1-42 (Homo sapiens, UniProt P05067); experiment: Aβ42 thioflavin T assay; assay type: biochemical; conditions: 50 μM compound, 5 μM Aβ 1-42, ThT RFU at 15 hours; 100% = Aβ + DMSO; read-out: Aβ42 % aggregation at 50 μM
T3 construct: The monomeric form of Aβ 1-42 (rPeptide, A1170-025) film; purchased rPeptide A1170-025
T3 sequence (P05067 672-713 limits assumed): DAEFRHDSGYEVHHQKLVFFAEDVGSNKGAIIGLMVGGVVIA
Protocol: The effect of compounds on fibril formation by Aβ 1-42 was screened using a thioflavin T (ThT) fluorescence assay in a 96-well plate format. The monomeric form of Aβ 1-42 (rPeptide, A1170-025) film was diluted with 10 mM NaOH to form a 1 mg/ml stock solution. This stock solution was then further diluted with cell culture grade water (Cytiva, SH30529.01) and 10×PBS (VWR, 97063-660) to a working concentration of 100 μM in 1×PBS on ice. Compounds were initially dissolved in 100% DMSO (MilliporeSigma, D2650) at room temperature to make a 10 mM stock and stored at −20° C. prior to the experiment. On the day of the experiment, the stock solution was diluted with 1×PBS to a concentration of 500 μM, containing 5% DMSO. The reaction mixture, containing 10 μM ThT […], 5 μM Aβ 1-42, and 1×PBS was prepared in 15 ml Falcon centrifuge tubes (Corning, 352070) and kept on ice during preparation. The reaction mixture was then dispensed into multiple wells of a 96-well half-area, low-binding polyethylene non-treated plate (Corning, 3880) with a clear bottom, at 90 μL per well. To each well, 10 μL of 500 μM compound stock was added, with three replicates per compound. To account for the presence of DMSO, 5% DMSO in 1×PBS was used as the vehicle control. The positive control consisted of 10 μM ThT, 5 μM Aβ 1-42, and 0.5% DMSO in 1×PBS, while the negative control consisted of 10 μM ThT and 0.5% DMSO in 1×PBS. The plates were sealed with polyester sealing tape (VWR, 89134-430) to prevent evaporation and then placed in a plate reader (Molecular Devices SpectraMax ID5) at 37° C. without agitation. ThT fluorescence was measured through the bottom of the plate using 440- and 480-nm excitation and emission filters for 15 hours at 0.5-hour intervals. Each well was scanned at 5 points with a 1.25 mm distance between points. The relative fluorescence unit (RFU) at 15 hours was used to rank the percent of aggregation for all tested compounds and controls.

SMILES | % aggregation TDP-43 ThT at 50 μM TDP-43 [1] [%] | % remaining TDP-43 cytosolic aggregates after 100 μM compound addition [2] [%] | % alpha synuclein aggregation as measured on ThT (alpha-synuclein) [%] | activity at 50 µM (Aβ 1-42) [%]
CC(=O)N(C)c1ccc2c(c1)CN(CCc1ccc(O)c(Cl)c1)C2.Cl [Compound 15, N-(2-(3-Chloro-4-hydroxyphenethyl)isoindolin-5-yl)-N-methylacetamide hydrochloride] | 47.2 |  |  | 
CCc1cc(CCN2Cc3ccc(NC(C)=O)cc3C2)ccc1O [Compound 14, N-(2-(3-Ethyl-4-hydroxyphenethyl)isoindolin-5-yl) acetamide] | 48.6 |  |  | 
CC(=O)Nc1ccc2c(c1)CCN(CCc1ccccc1)C2 [Compound 3, N-(2-Phenethyl-1,2,3,4-tetrahydroisoquinolin-6-yl) acetamide] | 78.9 | >99.9 | 82.8 | > 99.9
CNC(=O)c1ccc2c(c1)CCN(CCc1cccc(Cl)c1)C2 [Compound 4, 2-(3-chlorophenethyl)-N-methyl-1.2.3.4-tetrahydroisoquinoline-6-carboxamide] |  | 59.1 | >99.9 | 74.6
CC(=O)Nc1ccc2c(c1)CN(CCc1ccc(O)c(Cl)c1)C2 [Compound 12, N-(2-(3-Chloro-4-hydroxyphenethyl)isoindolin-5-yl) acetamide] | 43.5 |  |  | 
CC(=O)Nc1ccc2c(c1)CN(CCc1cccc(Cl)c1)CC2 [Compound 6, N-(2-(3-Chlorophenethyl)-1,2,3,4-tetrahydroisoquinolin-7-yl) acetamide] | 73.1 | 93.7 | >99.9 | 59.7
CC(=O)Nc1ccc2c(c1)CN(CCc1ccc(O)c(C)c1)C2 [Compound 13, N-(2-(4-Hydroxy-3-methylphenethyl)isoindolin-5-yl) acetamide] | 48.8 |  |  | 
Clc1cccc(CCN2CCc3ccccc3C2)c1 [Compound 5, 2-(3-chlorophenethyl)-1,2,3,4-tetrahydroisoquinoline] | 64.6 | 40.7 | 99 | 
